The text below walks through data of publication PMC5656594 (Scientific Reports, 2017).

Broadly, the IC50 is the concentration needed to halve the response being measured.

One assay concerns IN. The conditions noted are these: INSTIs; cited from earlier work.
In assay [1] the target is T1, IN^PFV-viral DNA interaction (Human spumaretrovirus, UniProt P14350).
T1 construct: The full-length wt IN^PFV, the three single mutants of the catalytic triad; His; made in house; host or cells: E. coli BL21-CodonPlus (DE3)-RIPL
As to the kind of experiment: IN-viral DNA interaction by steady-state fluorescence anisotropy of Fl-DNA with increasing drug concentrations. The format is binding, prototype foamy virus (PFV). To be noted: 400 nM IN^PFV, 4 nM Fl-PFV^CAAT, 10 mM Mg2+, up to 20 µM drug; means INSTI did not prevent IN-DNA interactions. On the procedure: Their incapability to prevent or disrupt IN-viral DNA complexes was consistently observed over the whole concentration range, regardless of the INSTI tested (Supplementary Fig. S7).
(§1) IN^PFV binding to DNA was measured by fluorescence anisotropy on a Beacon Instrument (Panvera, Madison, WI, USA) as previously described[25],[51], using a double-stranded 21-mer Fl-labeled DNA mimicking the PFV U5 LTR end also referred to as DNA#1 in Table 1 (labeled at the 5′-end of the reactive strand). IN binding to Fl-PFV^CAAT (or Fl-DNA#1) was compared to the binding to other DNA sequences (Fl-DNA#8 #9 #13). DNA annealing was obtained by mixing equimolar amounts of complementary strands in buffer A, heating to 85 °C for 5 min and slow cooling to 25 °C. DNA-binding experiments were performed at 25 °C in buffer A.
(§2) Figure S7. Differential effect of INSTI and INBI compounds on the INPFV-viral DNA interaction.
(§3) The formation of IN-DNA complexes was measured by steady-state fluorescence anisotropy using 400 nM INPFV and 4 nM Fl-PFVCAAT (also named Fl-DNA#1) in the presence of 10 mM Mg2+ and […]
(§4) In each plot, the starting r value (≈ 0.20) corresponds to the typical value found at saturating concentrations of IN (see Fig. S6).
(§5) The INBI compound FZ41, a member of the styrylquinoline family of inhibitors, was used as a control […]
(§6) show mean ± SD values from two independent experiments. […]
(In general: Fluorescence polarisation rises when a labelled molecule tumbles more slowly, as on binding a larger partner.)

Another assay concerns the target T2, wt IN^PFV (IN; WT) (Human spumaretrovirus, UniProt P14350).
T2 construct: gene pol; full-length, His-tagged, expressed in E. coli BL21-CodonPlus (DE3)-RIPL
The assay can be described thus: Inhibition of IN-viral DNA binding by steady-state fluorescence anisotropy of 4 nM Fl-PFV^CAAT with 400 nM IN, 10 mM Mg2+, 25 °C. The format is biochemical. To be noted: n = 2; read-out: IC50 (IN-DNA interaction). The procedure: as §2, §3, §4, §5, §6, §1

`COc1cc2c(cc1Cc1cccc(Cl)c1F)c(=O)c(C(=O)O)cn2[C@H](CO)C(C)C` [EVG, elvitegravir]: in the assay on IN, the IC50 values result is recorded as “low-nanomolar range”. In assay [1], the “r value of Fl-DNA (IN-DNA complex) on increasing INSTI concentration” value is reported as “remained constant”. Take `COc1cc(/C=C/c2ccc3ccc(C(=O)O)c(O)c3n2)cc(O)c1O` [FZ41, FZ41 (styrylquinoline family INBI compound)]: on wt IN^PFV (IN; WT), the IC50 is around 800 nM. Turning to `Cc1nnc(C(=O)NC(C)(C)c2nc(C(=O)NCc3ccc(F)cc3)c(O)c(=O)n2C)o1` [RAL, Raltegravir], in the assay with IN, the IC50 values entry is “low-nanomolar range”. Also, the “r value of Fl-DNA (IN-DNA complex) on increasing INSTI concentration” value in assay [1] is listed as “remained constant”.
